Reference: ChEMBL document CHEMBL1201862, “PubChem BioAssay data set” (2004)
The source made the active and inactive calls.

Assays:
[1] = Luminescence Cell-Based Dose Response HTS to Identify Inhibitors of Luciferase Translation or Activity in H4-C Neuroglioblastoma Cells. [Related pubchem assays: 1813 (Primary HTS), 1827 (Project Summary)]; type: functional
[2] = Luminescence Cell-Based Dose Response HTS to Identify Activators of Luciferase Translation or Activity in H4-C Neuroglioblastoma Cells. [Related pubchem assays: 1829 (Project Summary), 1814 (Primary HTS)]; type: functional
[3] = inhibitors of firefly luciferase expression or activity, dose response, H4 neuroglioma cells, luminescence (AID 1990); type: functional, cell-based
[4] = luciferase reporter signal reduction – luminescence, H4-C neuroglioblastoma cells, dose response (AID 2458); type: functional, cell-based;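 note: H4 neuroglioblastoma cells stably carrying a luciferase reporter gene fusion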
[5] = Luminescence Cell-Based Dose Retest to Confirm Activators of 5'UTR Stem-Loop Driven Alpha-Synuclein mRNA Translation in H4 Neuroglioblastoma Cells. [Related pubchem assays (depositor defined):AID1813, AID1829]; type: functional
[6] = Luminescence Cell-Based Dose Response HTS to Identify Activators of 5'UTR Stem-Loop Driven Prion Protein mRNA Translation in H4-C Neuroglioblastoma Cells. [Related pubchem assays: 1829 (Project Summary), 1814 (Primary HTS)]; type: functional
[7] = Luminescence Cell-Based Dose HTS Response to Identify Inhibitors of 5'UTR Stem-Loop Driven Prion Protein mRNA Translation in H4-C Neuroglioblastoma Cells. [Related pubchem assays (depositor defined):AID1814, AID1827]; type: functional
cells = type: functional, cell-based
[8] = Luminescence Cell-Based Dose Response HTS to Identify Inhibitors of 5'UTR Stem-Loop Driven Prion Protein mRNA Translation in H4 Neuroglioblastoma Cells. [Related pubchem assays: 1827 (Project Summary), 1813 (Primary HTS)]; type: functional
[9] = inhibitors of SNCA 5'UTR-driven reporter translation, confirmation, H4 neuroglioma cells, luminescence (AID 1988); type: functional, cell-based
[10] = Luminescence Cell-Based Dose Confirmation HTS to Identify Inhibitors of 5'UTR Stem-Loop Driven Alpha-Synuclein mRNA Translation in H4 Neuroglioblastoma Cells. [Related pubchem assays: 1827 (Project Summary), 1813 (Primary HTS)]; type: functional
J774.A1 = assay: Confirmation of image-based Screening Assay for Inhibitors of Phagocytosis. [Related pubchem assays (depositor defined):AID1029, AID1643]; type: functional, cell-based; details: Mus musculus
[11] = inhibitors of SNCA 5'UTR-driven translation, confirmation, luminescence, H4 neuroglioblastoma cells, dose confirmation (AID 2454); type: functional, cell-based;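 note: H4 neuroglioblastoma cells carrying an alpha-synuclein 5'UTR luciferase reporter; potency for inhibition of the luciferase signal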
Coagulation factor XII = target: T1, Coagulation factor XII (Homo sapiens, UniProt P00748); assay: Factor XIIa Dose Response Confirmation from Single Well HTS. [Related pubchem assays (depositor defined):AID701]; type: functional
T1 sequence (P00748 whole entry): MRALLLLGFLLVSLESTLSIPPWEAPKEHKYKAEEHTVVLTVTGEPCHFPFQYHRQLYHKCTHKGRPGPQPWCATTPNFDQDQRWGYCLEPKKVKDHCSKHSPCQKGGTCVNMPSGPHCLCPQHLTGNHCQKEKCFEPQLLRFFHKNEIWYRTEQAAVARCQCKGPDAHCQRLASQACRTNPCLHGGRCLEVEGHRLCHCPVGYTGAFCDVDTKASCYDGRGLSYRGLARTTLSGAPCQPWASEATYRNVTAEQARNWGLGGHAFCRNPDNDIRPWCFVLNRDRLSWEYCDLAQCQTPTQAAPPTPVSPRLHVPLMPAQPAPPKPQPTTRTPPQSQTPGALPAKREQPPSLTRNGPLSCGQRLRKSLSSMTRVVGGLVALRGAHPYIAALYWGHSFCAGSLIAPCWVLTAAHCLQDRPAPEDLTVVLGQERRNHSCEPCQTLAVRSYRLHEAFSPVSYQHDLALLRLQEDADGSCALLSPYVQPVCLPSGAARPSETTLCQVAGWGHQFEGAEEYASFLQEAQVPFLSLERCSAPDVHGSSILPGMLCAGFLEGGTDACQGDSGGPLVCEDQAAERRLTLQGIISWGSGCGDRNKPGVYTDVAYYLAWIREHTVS

[12] = target: T2, Replicative DNA helicase DnaB (Mycobacterium tuberculosis, UniProt P9WMR3); assay: DnaB intein splicing inhibitors, dose response, biochemical, cell-free fluorescence (AID 449749); type: functional
T2 sequence (P9WMR3 whole entry): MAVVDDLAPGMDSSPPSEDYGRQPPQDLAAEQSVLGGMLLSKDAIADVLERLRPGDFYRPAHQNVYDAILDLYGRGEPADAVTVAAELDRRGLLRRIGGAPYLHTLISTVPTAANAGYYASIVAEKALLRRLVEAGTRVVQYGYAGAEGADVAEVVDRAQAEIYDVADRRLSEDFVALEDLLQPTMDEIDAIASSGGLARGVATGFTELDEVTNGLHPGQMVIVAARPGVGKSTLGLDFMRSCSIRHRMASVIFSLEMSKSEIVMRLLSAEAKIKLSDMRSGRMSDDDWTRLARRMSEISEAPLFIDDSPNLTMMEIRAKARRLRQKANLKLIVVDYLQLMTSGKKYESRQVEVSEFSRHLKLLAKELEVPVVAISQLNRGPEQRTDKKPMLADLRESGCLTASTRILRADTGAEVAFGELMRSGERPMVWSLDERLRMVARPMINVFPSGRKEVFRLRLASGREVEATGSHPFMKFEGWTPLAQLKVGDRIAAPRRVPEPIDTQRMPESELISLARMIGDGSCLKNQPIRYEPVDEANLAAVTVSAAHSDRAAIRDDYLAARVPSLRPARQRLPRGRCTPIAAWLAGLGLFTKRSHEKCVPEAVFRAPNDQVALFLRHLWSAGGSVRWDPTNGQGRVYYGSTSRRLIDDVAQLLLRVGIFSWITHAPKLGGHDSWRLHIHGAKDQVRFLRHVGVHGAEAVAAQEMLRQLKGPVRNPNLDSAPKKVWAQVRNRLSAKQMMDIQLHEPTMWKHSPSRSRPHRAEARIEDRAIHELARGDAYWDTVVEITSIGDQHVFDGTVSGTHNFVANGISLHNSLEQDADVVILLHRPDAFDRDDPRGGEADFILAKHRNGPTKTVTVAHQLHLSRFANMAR

Protein RecA = target: T3, Protein RecA (Mycobacterium tuberculosis, UniProt P9WHJ3); assay: Fluorescence Cell-Free Homogeneous Dose Retest to Identify Inhibitors of RecA-Intein Splicing Activity. [Related pubchem assays (depositor defined):AID2097, AID2223, AID489010, AID492950]; type: functional
T3 sequence (P9WHJ3 whole entry): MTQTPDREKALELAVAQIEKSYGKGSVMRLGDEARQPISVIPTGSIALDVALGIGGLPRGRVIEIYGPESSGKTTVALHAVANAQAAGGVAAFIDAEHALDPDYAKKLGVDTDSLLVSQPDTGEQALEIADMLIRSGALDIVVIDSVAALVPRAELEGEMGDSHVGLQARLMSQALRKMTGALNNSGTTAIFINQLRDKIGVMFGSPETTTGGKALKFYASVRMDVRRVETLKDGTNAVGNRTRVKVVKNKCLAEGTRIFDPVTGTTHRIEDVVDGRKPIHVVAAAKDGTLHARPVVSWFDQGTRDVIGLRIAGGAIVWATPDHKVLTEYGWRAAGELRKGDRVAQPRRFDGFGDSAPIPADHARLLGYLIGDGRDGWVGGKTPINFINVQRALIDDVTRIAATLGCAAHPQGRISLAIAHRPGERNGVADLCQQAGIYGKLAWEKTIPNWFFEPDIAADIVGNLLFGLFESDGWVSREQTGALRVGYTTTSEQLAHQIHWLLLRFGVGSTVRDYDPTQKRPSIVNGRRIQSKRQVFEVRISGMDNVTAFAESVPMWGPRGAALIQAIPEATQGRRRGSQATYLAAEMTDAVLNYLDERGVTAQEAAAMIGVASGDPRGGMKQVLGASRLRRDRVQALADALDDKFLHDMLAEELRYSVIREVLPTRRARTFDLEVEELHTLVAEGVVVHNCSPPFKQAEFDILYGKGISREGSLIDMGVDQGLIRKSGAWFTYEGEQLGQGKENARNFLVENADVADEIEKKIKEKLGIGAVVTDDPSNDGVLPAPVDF

[13] = target: Sphingosine 1-phosphate receptor 4 (Homo sapiens, UniProt O95977); assay: Late-stage fluorescence dose response cell-based assay to identify agonists of the Sphingosine 1-Phosphate Receptor 4 (S1P4): purchased compounds EC50. [Related pubchem assays (depositor defined):AID1509, AID1523, AID1563, AID1686, AID1701, AID1801]; type: functional
Chain of Sphingosine 1-phosphate receptor 4 (O95977 whole entry): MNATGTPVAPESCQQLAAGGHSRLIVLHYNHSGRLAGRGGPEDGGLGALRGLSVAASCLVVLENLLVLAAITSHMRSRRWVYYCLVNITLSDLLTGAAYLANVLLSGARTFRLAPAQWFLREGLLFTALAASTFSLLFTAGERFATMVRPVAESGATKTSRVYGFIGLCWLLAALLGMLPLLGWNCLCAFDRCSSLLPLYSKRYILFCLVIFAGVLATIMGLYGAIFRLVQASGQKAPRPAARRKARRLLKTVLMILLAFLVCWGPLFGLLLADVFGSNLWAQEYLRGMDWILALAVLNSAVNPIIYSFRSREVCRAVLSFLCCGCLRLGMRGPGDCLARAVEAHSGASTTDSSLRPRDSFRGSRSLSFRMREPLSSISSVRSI

N#CC1=C(N)Oc2c(ccc3ccccc23)C1c1cccs1 (configuration not stated)
EC50 [1]: 246 nM (active)
EC50 [2]: 246 nM (inconclusive)
EC50 [3]: 5470 nM (inconclusive)
EC50 [4]: 474 nM (active)
EC50 [5]: 9280 nM (inconclusive)
EC50 [6]: 162 nM (inconclusive)
EC50 [7]: 162 nM (active)
EC50 (cells): 885 nM (active)
EC50 [8]: 9470 nM (active)
EC50 [9]: < 100 nM (active)
EC50 [10]: 9280 nM (active)
IC50 (J774.A1): 1860 nM (active)
EC50 [11]: 739 nM (active)

O=C(Oc1cccc(-n2cnnn2)c1)c1ccco1
IC50 (Coagulation factor XII): 12400 nM (active)
AC50 [12]: 23800 nM (active)
EC50 (Protein RecA): 15100 nM (active)

Cc1ccc(OCC(=O)NC(C)c2ccc(Cl)cc2Cl)c([N+](=O)[O-])n1 (configuration not stated)
EC50 [13]: > 50000 nM (inactive)
